{"source": "paper PMC8162404", "about": "“Proteomimetic surface fragments distinguish targets by function” (Chemical Science, 2020)"}
{"target": "T1, Gal-1 (Homo sapiens, UniProt P09382)", "T1 construct": "made in house; host or cells: E. coli BL21(DE3)", "T1 sequence (P09382 whole entry)": "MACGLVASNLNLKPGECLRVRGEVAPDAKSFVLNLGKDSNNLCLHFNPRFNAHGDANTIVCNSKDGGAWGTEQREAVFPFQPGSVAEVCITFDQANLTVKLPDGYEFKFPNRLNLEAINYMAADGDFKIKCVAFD", "assay": "Pull-down assay with immobilized protein and LSM libraries", "assay_type": "binding", "conditions": "H12 library; 1:1 binding assumed; read-out: Surface mapping KD (apparent)", "experimental": "(§1) Pull-down assays with immobilized test proteins and foldameric LSM libraries were carried out. Proteins were equilibrated with LSM probes, and equilibrium bound fractions (FB) were determined from the unbound fractions measured by HPLC-MS methods. Hits were corrected with background binding of the resin. The protocol allowed all binding events to equilibrate irrespective of affinity, specificity, and binding kinetics. This was essential to judge overall druggability and promiscuity. Importantly, the concentration of protein and the total concentration of foldameric LSMs were equimolar, which minimized competition between the probes. This experimental setup approximated independent binding of individual library members. Results were visualized as heat maps of dissociation constants (Fig. 3).\n(§2) Pull-down assay and data analysis\n(§3) Pull-down assay. LSM sublibraries were screened separately as previously described.(2) Experiments were performed in the following buffers: (i) 20 mM pH 7.4 HEPES, 150 mM NaCl, 5 mM CaCl2 for CaM; (ii) 50 mM pH 7.4 HEPES, 150 mM NaCl, 1 mM TCEP, 1 mM CaCl2 for S100 proteins; (iii) 20 mM pH 7.4 HEPES, 150 mM NaCl, 1 mM TCEP for Gal-1 and (iv) 20 mM pH 7.4 HEPES, 150 mM NaCl for RecQ-WH. Assays were performed in paper filter spin cups (Thermo Scientific) with sample volumes of 100 µl. Hexahistidine-tagged proteins were immobilized on previously washed Co-NTA resin (TALON, Takara Bio USA, Inc., Mountain View, CA) in 64 µM final concentration. LSM sublibrary was added, in which each of the 64 library members were used at a concentration of 1 µM. Samples were incubated at room temperature for 30 min with shaking at 100 rpm. Then, samples were centrifuged at 1000 rpm for 2 min and washed with 100 µl pull-down buffer to remove unbound compounds.\n(§4) The control experiments were performed using the same compounds and the resin but without the immobilized protein. In case of competitive assays, competitor peptides were added to LSM sublibrary samples in 200 µM final concentration. In the case of Gal-1, lactose (competitor) was used in a concentration of 10 mM. Experiments were performed at least twice. Mean […]\n(§5) LC-MS methods and parameters. HPLC/ESI-MS analysis was used to characterize the samples from the pull-down assay. LC-MS analysis was performed with a Thermo Scientific Dionex UltiMate 3000 HPLC system interfaced to an LTQ ion trap mass spectrometer (Thermo Electron Corp., San Jose, CA, USA). Samples were injected onto an Aeris Widepore XB-C18 (250 x 4.6 mm) analytical HPLC column using gradient elution 5-80 % solution B during 25 minutes. For pull-down samples, eluent composition was 0.1% acetic acid in distilled water (Solution A) and 0.1% acetic acid in acetonitrile (solution B). Mass spectra were acquired in full scan mode from 200 to 2000 m/z range. For overlapping peaks, selective reaction monitoring (SRM) was […]\n(§6) MS data analysis. Thermo Xcalibur 2.2 software was used for peak identification and integration. The majority of the foldameric fragments could be resolved independently via HPLC-MS/MS measurements based on molecular weight, MS fragmentation pattern and retention time. Peaks of some foldamers with β3-hIle or β3-hLeu in position R2 could not be resolved, these were integrated and averaged. In the processing method, each sample component was associated to a chromatographic peak based on previously identified mass (m/z) and retention time (ref (2) and Table S7-10). Using ICIS peak detection algorithm, the general detection and integration criteria were: smoothing points: 5, baseline window: 80, area noise factor: 5, peak noise factor: 10. Using these processing setups, all raw data files were reprocessed together and analyzed. Errors in peak identification during the automatic processing were corrected manually.\n(§7) Calculation of the discussed parameters\n(§8) 1. Bound fractions (FB.) were calculated from the HPLC-MS intensity loss of the LSM probes compared to the control where no protein was immobilized to the resin: […]", "units": {"Kd": "µM"}}
{"smiles": "CC[C@H](C)[C@@H](CC(=O)N[C@H]1CCC[C@@H]1C(=O)N[C@H]1CCC[C@@H]1C(N)=O)NC(=O)[C@H]1CCC[C@@H]1NC(=O)[C@H]1CCC[C@@H]1NC(=O)C[C@H](CCC(=O)O)NC(=O)[C@H]1CCC[C@@H]1NC(=O)[C@H]1CCC[C@@H]1N", "note": "[H12 EI]", "Kd": 244}
{"smiles": "NCCCC[C@@H](CC(=O)N[C@H]1CCC[C@@H]1C(=O)N[C@H]1CCC[C@@H]1C(N)=O)NC(=O)[C@H]1CCC[C@@H]1NC(=O)[C@H]1CCC[C@@H]1NC(=O)C[C@H](CCC(=O)O)NC(=O)[C@H]1CCC[C@@H]1NC(=O)[C@H]1CCC[C@@H]1N", "note": "[H12 EK]", "Kd": 200}
{"smiles": "CC(C)C[C@@H](CC(=O)N[C@H]1CCC[C@@H]1C(=O)N[C@H]1CCC[C@@H]1C(N)=O)NC(=O)[C@H]1CCC[C@@H]1NC(=O)[C@H]1CCC[C@@H]1NC(=O)C[C@H](CCC(=O)O)NC(=O)[C@H]1CCC[C@@H]1NC(=O)[C@H]1CCC[C@@H]1N", "note": "[H12 EL]", "Kd": 244}
{"smiles": "CSCC[C@@H](CC(=O)N[C@H]1CCC[C@@H]1C(=O)N[C@H]1CCC[C@@H]1C(N)=O)NC(=O)[C@H]1CCC[C@@H]1NC(=O)[C@H]1CCC[C@@H]1NC(=O)C[C@H](CCC(=O)O)NC(=O)[C@H]1CCC[C@@H]1NC(=O)[C@H]1CCC[C@@H]1N", "note": "[H12 EM]", "Kd": 251}
{"smiles": "NC(=O)CC[C@@H](CC(=O)N[C@H]1CCC[C@@H]1C(=O)N[C@H]1CCC[C@@H]1C(N)=O)NC(=O)[C@H]1CCC[C@@H]1NC(=O)[C@H]1CCC[C@@H]1NC(=O)C[C@H](CCC(=O)O)NC(=O)[C@H]1CCC[C@@H]1NC(=O)[C@H]1CCC[C@@H]1N", "note": "[H12 EQ]", "Kd": 236}
{"smiles": "NC(=O)[C@H]1CCC[C@@H]1NC(=O)[C@H]1CCC[C@@H]1NC(=O)C[C@H](CO)NC(=O)[C@H]1CCC[C@@H]1NC(=O)[C@H]1CCC[C@@H]1NC(=O)C[C@H](CCC(=O)O)NC(=O)[C@H]1CCC[C@@H]1NC(=O)[C@H]1CCC[C@@H]1N", "note": "[H12 ES]", "Kd": 289}
{"smiles": "C[C@@H](O)[C@@H](CC(=O)N[C@H]1CCC[C@@H]1C(=O)N[C@H]1CCC[C@@H]1C(N)=O)NC(=O)[C@H]1CCC[C@@H]1NC(=O)[C@H]1CCC[C@@H]1NC(=O)C[C@H](CCC(=O)O)NC(=O)[C@H]1CCC[C@@H]1NC(=O)[C@H]1CCC[C@@H]1N", "note": "[H12 ET]", "Kd": 372}
{"smiles": "CC(C)[C@@H](CC(=O)N[C@H]1CCC[C@@H]1C(=O)N[C@H]1CCC[C@@H]1C(N)=O)NC(=O)[C@H]1CCC[C@@H]1NC(=O)[C@H]1CCC[C@@H]1NC(=O)C[C@H](CCC(=O)O)NC(=O)[C@H]1CCC[C@@H]1NC(=O)[C@H]1CCC[C@@H]1N", "note": "[H12 EV]", "Kd": 316}
{"smiles": "NC(=O)[C@H]1CCC[C@@H]1NC(=O)[C@H]1CCC[C@@H]1NC(=O)C[C@H](Cc1c[nH]c2ccccc12)NC(=O)[C@H]1CCC[C@@H]1NC(=O)[C@H]1CCC[C@@H]1NC(=O)C[C@H](CCC(=O)O)NC(=O)[C@H]1CCC[C@@H]1NC(=O)[C@H]1CCC[C@@H]1N", "note": "[H12 EW]", "Kd": 235}
{"smiles": "NC(=O)[C@H]1CCC[C@@H]1NC(=O)[C@H]1CCC[C@@H]1NC(=O)C[C@H](Cc1ccc(O)cc1)NC(=O)[C@H]1CCC[C@@H]1NC(=O)[C@H]1CCC[C@@H]1NC(=O)C[C@H](CCC(=O)O)NC(=O)[C@H]1CCC[C@@H]1NC(=O)[C@H]1CCC[C@@H]1N", "note": "[H12 EY]", "Kd": 260}
{"smiles": "CC[C@H](C)[C@@H](CC(=O)N[C@H]1CCC[C@@H]1C(=O)N[C@H]1CCC[C@@H]1C(=O)N[C@@H](CC(=O)O)CC(=O)N[C@H]1CCC[C@@H]1C(=O)N[C@H]1CCC[C@@H]1C(N)=O)NC(=O)[C@H]1CCC[C@@H]1NC(=O)[C@H]1CCC[C@@H]1N", "note": "[H12 ID]", "Kd": 462}
{"smiles": "CC[C@H](C)[C@@H](CC(=O)N[C@H]1CCC[C@@H]1C(=O)N[C@H]1CCC[C@@H]1C(=O)N[C@@H](CC(N)=O)CC(=O)N[C@H]1CCC[C@@H]1C(=O)N[C@H]1CCC[C@@H]1C(N)=O)NC(=O)[C@H]1CCC[C@@H]1NC(=O)[C@H]1CCC[C@@H]1N", "note": "[H12 IN]", "Kd": 401}
{"smiles": "CC[C@H](C)[C@@H](CC(=O)N[C@H]1CCC[C@@H]1C(=O)N[C@H]1CCC[C@@H]1C(=O)N[C@@H](CCC(N)=O)CC(=O)N[C@H]1CCC[C@@H]1C(=O)N[C@H]1CCC[C@@H]1C(N)=O)NC(=O)[C@H]1CCC[C@@H]1NC(=O)[C@H]1CCC[C@@H]1N", "note": "[H12 IQ]", "Kd": 446}
{"smiles": "NCCCC[C@@H](CC(=O)N[C@H]1CCC[C@@H]1C(=O)N[C@H]1CCC[C@@H]1C(=O)N[C@@H](CCC(=O)O)CC(=O)N[C@H]1CCC[C@@H]1C(=O)N[C@H]1CCC[C@@H]1C(N)=O)NC(=O)[C@H]1CCC[C@@H]1NC(=O)[C@H]1CCC[C@@H]1N", "note": "[H12 KE]", "Kd": 212}
{"smiles": "CC(C)C[C@@H](CC(=O)N[C@H]1CCC[C@@H]1C(=O)N[C@H]1CCC[C@@H]1C(=O)N[C@@H](CC(=O)O)CC(=O)N[C@H]1CCC[C@@H]1C(=O)N[C@H]1CCC[C@@H]1C(N)=O)NC(=O)[C@H]1CCC[C@@H]1NC(=O)[C@H]1CCC[C@@H]1N", "note": "[H12 LD]", "Kd": 470}
{"smiles": "CC(C)C[C@@H](CC(=O)N[C@H]1CCC[C@@H]1C(=O)N[C@H]1CCC[C@@H]1C(=O)N[C@@H](CCC(=O)O)CC(=O)N[C@H]1CCC[C@@H]1C(=O)N[C@H]1CCC[C@@H]1C(N)=O)NC(=O)[C@H]1CCC[C@@H]1NC(=O)[C@H]1CCC[C@@H]1N", "note": "[H12 LE]", "Kd": 335}
{"smiles": "NCCCC[C@@H](CC(=O)N[C@H]1CCC[C@@H]1C(=O)N[C@H]1CCC[C@@H]1C(N)=O)NC(=O)[C@H]1CCC[C@@H]1NC(=O)[C@H]1CCC[C@@H]1NC(=O)C[C@H](CC(N)=O)NC(=O)[C@H]1CCC[C@@H]1NC(=O)[C@H]1CCC[C@@H]1N", "note": "[H12 NK]", "Kd": 430}
{"smiles": "N=C(N)NCCC[C@@H](CC(=O)N[C@H]1CCC[C@@H]1C(=O)N[C@H]1CCC[C@@H]1C(=O)N[C@@H](CC(=O)O)CC(=O)N[C@H]1CCC[C@@H]1C(=O)N[C@H]1CCC[C@@H]1C(N)=O)NC(=O)[C@H]1CCC[C@@H]1NC(=O)[C@H]1CCC[C@@H]1N", "note": "[H12 RD]", "Kd": 250}
{"smiles": "N=C(N)NCCC[C@@H](CC(=O)N[C@H]1CCC[C@@H]1C(=O)N[C@H]1CCC[C@@H]1C(=O)N[C@@H](CO)CC(=O)N[C@H]1CCC[C@@H]1C(=O)N[C@H]1CCC[C@@H]1C(N)=O)NC(=O)[C@H]1CCC[C@@H]1NC(=O)[C@H]1CCC[C@@H]1N", "note": "[H12 RS]", "Kd": 242}
{"smiles": "CC(C)[C@@H](CC(=O)N[C@H]1CCC[C@@H]1C(=O)N[C@H]1CCC[C@@H]1C(=O)N[C@@H](CC(=O)O)CC(=O)N[C@H]1CCC[C@@H]1C(=O)N[C@H]1CCC[C@@H]1C(N)=O)NC(=O)[C@H]1CCC[C@@H]1NC(=O)[C@H]1CCC[C@@H]1N", "note": "[H12 VD]", "Kd": 480}
{"smiles": "CC(C)[C@@H](CC(=O)N[C@H]1CCC[C@@H]1C(=O)N[C@H]1CCC[C@@H]1C(=O)N[C@@H](CCC(=O)O)CC(=O)N[C@H]1CCC[C@@H]1C(=O)N[C@H]1CCC[C@@H]1C(N)=O)NC(=O)[C@H]1CCC[C@@H]1NC(=O)[C@H]1CCC[C@@H]1N", "note": "[H12 VE]", "Kd": 469}
{"smiles": "CC(C)[C@@H](CC(=O)N[C@H]1CCC[C@@H]1C(=O)N[C@H]1CCC[C@@H]1C(=O)N[C@@H](CC(N)=O)CC(=O)N[C@H]1CCC[C@@H]1C(=O)N[C@H]1CCC[C@@H]1C(N)=O)NC(=O)[C@H]1CCC[C@@H]1NC(=O)[C@H]1CCC[C@@H]1N", "note": "[H12 VN]", "Kd": 497}
{"smiles": "CC(C)[C@@H](CC(=O)N[C@H]1CCC[C@@H]1C(=O)N[C@H]1CCC[C@@H]1C(=O)N[C@@H](CO)CC(=O)N[C@H]1CCC[C@@H]1C(=O)N[C@H]1CCC[C@@H]1C(N)=O)NC(=O)[C@H]1CCC[C@@H]1NC(=O)[C@H]1CCC[C@@H]1N", "note": "[H12 VS]", "Kd": 408}
{"smiles": "CC(C)[C@@H](CC(=O)N[C@H]1CCC[C@@H]1C(=O)N[C@H]1CCC[C@@H]1C(=O)N[C@H](CC(=O)N[C@H]1CCC[C@@H]1C(=O)N[C@H]1CCC[C@@H]1C(N)=O)[C@@H](C)O)NC(=O)[C@H]1CCC[C@@H]1NC(=O)[C@H]1CCC[C@@H]1N", "note": "[H12 VT]", "Kd": 432}
{"target": "T1, Gal-1", "assay": "Pull-down assay with immobilized protein and LSM libraries", "assay_type": "binding", "conditions": "H14 library; 1:1 binding assumed; read-out: Surface mapping KD (apparent)", "experimental": "as §1, §2, §3, §4, §5, §6, §7, §8", "units": {"Kd": "µM"}}
{"smiles": "C[C@@H](CC(=O)N[C@H]1CCCC[C@@H]1C(=O)N[C@H]1CCCC[C@@H]1C(=O)N[C@@H](CC(=O)O)CC(=O)N[C@H]1CCCC[C@@H]1C(N)=O)NC(=O)[C@H]1CCCC[C@@H]1N", "note": "[H14 AD]", "Kd": 168}
